Common to all, as to format: functional
Holding throughout (details): 336 h

Assay [1] has as its system Mycobacterium tuberculosis. As to the kind of experiment: Antitubercular activity against multi-drug resistant Mycobacterium tuberculosis K22b00MR after 14 days in presence of middlebrook 7H9/BSA medium by eleven fold serial dilution method.
The subject of assay [2] is Mycobacterium tuberculosis. Put plainly: Antitubercular activity against multi-drug resistant Mycobacterium tuberculosis K25b00MR after 14 days in presence of middlebrook 7H9/BSA medium by eleven fold serial dilution method.
Assay [3] deals with Mycobacterium tuberculosis. Put plainly: Antitubercular activity against multi-drug resistant Mycobacterium tuberculosis K26b00MR after 14 days in presence of middlebrook 7H9/BSA medium by eleven fold serial dilution method.
Assay [4] has as its system Mycobacterium tuberculosis. As to the kind of experiment: Antitubercular activity against multi-drug resistant Mycobacterium tuberculosis K29b00MR after 14 days in presence of middlebrook 7H9/BSA medium by eleven fold serial dilution method.

Where only a bound is given, the exact number is not on record here.

The term MIC denotes the least concentration at which growth counts as inhibited. As to `O=C1CC(Sc2ccc(C(F)(F)F)cc2)N1C(=O)NCc1ccccc1` (racemic), the minimal inhibitory concentration (MIC) in assay [1] worked out at 12.5 µg/mL; in assay [2] it was 25 µg/mL; in assay [3] it was 12.5 µg/mL; in assay [4], 25 µg/mL.

On to `C[C@H](NC(=O)N1C(=O)C[C@@H]1Sc1ccc(C(F)(F)F)cc1)c1ccccc1`, for which the MIC was 12.5 µg/mL in assay [1], 12.5 to 25 µg/mL in assay [2], 12.5 µg/mL in assay [3] and 12.5 µg/mL in assay [4].

Regarding `NNC(=O)c1ccncc1` [ISONIAZID], the MIC in assay [1] was 0.6 µg/mL; in assay [2], 1.3 µg/mL; in assay [3], above 1 µg/mL; in assay [4] it was at least 1 µg/mL.

Regarding `C[C@@H](NC(=O)N1C(=O)C[C@H]1Sc1ccc(F)cc1F)c1ccccc1`, the MIC in assay [1] is 12.5 µg/mL; in assay [2] it was 12.5 µg/mL; in assay [3], 12.5 to 25 µg/mL; in assay [4] it was 12.5 µg/mL.

In the case of `C[C@H](NC(=O)N1C(=O)C[C@H]1Sc1ccc(F)cc1F)c1ccccc1`, the minimum inhibitory concentration (MIC) in assay [1] was 25 µg/mL; in assay [2], 12.5 to 25 µg/mL; in assay [3] it was 25 to 50 µg/mL; in assay [4] it was 25 µg/mL.

`C[C@@H](NC(=O)N1C(=O)C[C@@H]1Sc1ccc(F)cc1F)c1ccccc1`: the MIC was 12.5 µg/mL in assay [1], 12.5 µg/mL in assay [2], 25 µg/mL in assay [3] and 12.5 µg/mL in assay [4].

The values are drawn from ChEMBL document CHEMBL4304800, “C4-Phenylthio β-lactams: Effect of the chirality of the β-lactam ring on antimicrobial activity” (2019).
